Reference: patent US12391768B2, “Antibodies to ticagrelor and methods of use” (MEDIMMUNE LIMITED, priority 2014, dated 2025)
Read-outs that look alike come from different tables or passages of the source.

How the values were obtained:
TICA0053 Fab = experiment: HTRF competition binding selectivity assay, TICA0053 His-Fab; set-up: species or system human; conditions: first series (Table 2), not DMSO normalised; read-out: IC50 (uM) for inhibition of biotinylated ticagrelor binding to TICA0053 his-Fab
Description: (§1) Total Binding control wells were set up which contained all of the assay components above except that 5 ul assay buffer was added in place of the test selectivity compound addition. Negative Binding control wells were set up which contained all of the assay components included in the Total Binding control wells except that 5ul assay buffer was added in place of the His-Fab addition. Test compound serial titrations were either ½ or ⅓ depending on the particular experiment and top final assay compound concentrations were optimized on a compound specific basis. The concentration of biotinylated ticagrelor and His-Fab was optimized on a Fab specific basis in separate experiments. For the four Fabs investigated at the end of the lead isolation phase (TICA0010, TICA0049, TICA0053 and TICA0072) the final assay reagent concentrations used are set out in Table 1 below:
(§2) For the two Fabs investigated at the end of the lead optimization phase (TICA0162 and TICA0212) the final assay reagent concentrations used were 5nM biotinylated ticagrelor and 1 nM His Fab in both cases. […] In order to enable subsequent normalization of data to correct for any such vehicle related effects parallel titrations of DMSO alone were included in most experiments in which the final assay DMSO concentrations mirrored those of the test compound serial dilutions. At the end of the set up procedure that assay was incubated for 3hrs at RT before being read on an Envision plate reader using a standard read protocol.
(§3) The negative ratio value used in the calculation of % Delta F was derived from the Negative Binding control wells. % Delta F values were then used to calculate % Specific Binding values according to the equation below: Specific Binding (%)={(Sample Delta F−Negative Binding Delta F)/(Total Binding Delta F−Negative Binding Delta F)}×100
(§4) For standard calculations of % Specific Binding Total Binding Delta F was taken from Total Binding control wells which contained all of the aforementioned components of the assay but without inclusion of any competing test compound.
(§5) In those experiments where DMSO normalization was applied DMSO normalised % Specific Binding was calculated essentially according to the equation above except that in this case Total Binding Delta F was taken from wells containing all of the components in the Total Binding control wells as well as DMSO at a concentration equivalent to that in the relevant sample well.

TICA0010 Fab = experiment: HTRF competition binding selectivity assay, TICA0010 His-Fab; set-up: species or system human; conditions: first series (Table 2), not DMSO normalised; read-out: IC50 (uM) for inhibition of biotinylated ticagrelor binding to TICA00l0 his-Fab
Description: as §1, §2, §3, §4, §5

TICA0049 Fab = experiment: HTRF competition binding selectivity assay, TICA0049 His-Fab; set-up: species or system human
Description: as §1, §2, §3, §4, §5
In a second series of experiments further selectivity data was generated for TICA0049 and TICA0072 Fabs in which a subset of four of the twelve compounds listed in FIG. 4 were retested along with ticagrelor, TAM and TIM and several adenosine related compounds. Here, in a refinement to the earlier investigations in Table 2, experiments were designed in order to enable normalisation of percent specific binding values to correct for any non-specific vehicle related effects due to DMSO. Example plotted data from this second series of experiments is shown in FIG. 5A-F along with tabulated IC50 values in Table 3.

[1] = Total plasma concentration of ticagrelor and TAM (LC-MS/MS); assay type: in vivo, mice
Description: Blood samples were collected in tubes with EDTA anticoagulant and centrifuged for 5 min at 10000× g at room temperature to prepare plasma. The plasma concentration of ticagrelor and TAM were determined by protein precipitation and liquid chromatography with tandem mass spectrometry (LC-MS/MS) as described in published method [Sillén H., et al., J Chromatogr B Analyt Technol Biomed Life Sci 2010; 878: 2299-306] with the following deviations. Plasma, 50 μL, was protein precipitated with 180 μl internal standard (D7-ZD6140) in acetonitrile. The liquid chromatographic system and mass spectrometer was an Acquity Ultra Performance LC coupled to a Xevo TQ-S mass spectrometer from Waters. Chromatographic separation was achieved on an Aquity UPLC® BEH C18 column (2.1×50 mm, particle size 1.7 um). Negative electrospray ionization was utilized. Eluent A was water with 10 mmol/L ammonium acetate, pH5 and eluent B was acetonitrile with 10 mmol/L ammonium acetate. Injection volume was 1 to 5 μL and the analytical gradient started with 4% B, increasing to 95% in 1.5 min, remaining until 2.3 min, before returning to initial conditions within 2.4 min followed by 0.3 min re-equilibration. No quality control samples were used in the analysis. The lower limit of quantification (LLOQ) was 0.005 μmol/L and the calibration range was 0.005 to 15.0 μM.
The total plasma concentrations of ticagrelor and TAM in presence of TICA0212/MEDI2452 were determined by adding 1% formic acid (FA: Sample, 1:5) followed by protein precipitation and LC-MS/MS as described above. Formic acid was added to the sample to facilitate dissociation of ticagrelor and TICA0212/MEDI2452.

[2] = human, in vivo; cited from earlier work
TICA0162 Fab = experiment: HTRF competition binding selectivity assay, TICA0162 His-Fab; set-up: species or system human; conditions: Table 7, DMSO normalised; 5 nM biotinylated ticagrelor, 1 nM His Fab; read-out: IC50 (uM) for inhibition of biotinylated ticagrelor binding to TICA0162 Fab
Description: as §1
as §2, with “protocol. […]” for “protocol.”
as §5

IC50 (TICA0053 Fab): 0.109 µM
IC50 (TICA0010 Fab): 0.122 µM
IC50 (TICA0049 Fab; first series (Table 2), not DMSO normalised, read-out: IC50 (uM) for inhibition of biotinylated ticagrelor binding to TICA0049 his-Fab): 0.257 µM
IC50 (TICA0049 Fab; second series (Table 3), DMSO normalised, read-out: IC50 in competition binding selectivity studies, TICA0049): 0.368 µM
ticagrelor plasma exposure, average ([1]; Example 11, after termination of the ticagrelor infusion, i.v., mice): 1.4 µM
mean total plasma concentration ([1]; Example 12, end of ticagrelor infusion 300 μg/kg/min 20 min, mice): 7.6 µM
mean total plasma concentration at time of tail cut ([1]; Example 12, vehicle treated mice, t=30 minutes): 2.4 µM
IC50 (TICA0162 Fab): 0.023 µM
Structure (SMILES): CCCSc1nc(N[C@@H]2C[C@H]2c2ccc(F)c(F)c2)c2nnn([C@@H]3C[C@H](OCCO)[C@@H](O)[C@H]3O)c2n1 [Ticagrelor, (1S,2S,3R,5S)-3-[7-{[(1R,2S)-2-(3,4-difluorophenyl)cyclopropyl]amino}-5-(propylthio)-3H-[1,2,3]triazolo[4,5-d]pyrimidin-3-yl]-5-(2-hydroxyethoxy)cyclopentane-1,2-diol]
circulating half-life [2]: 8 h
